Data published in paper PMC6848912 (British Journal of Clinical Pharmacology, 2019).

How the values were obtained:
[1] = Inc. data on file, cited from earlier work
[2] = cited from earlier work
[3] = in combination with carboplatin + paclitaxel; cited from earlier work
[4] = Population pharmacokinetic analysis; assay type: in vivo
[5] = concurrent administration of carboplatin + paclitaxel
[6] = nonparametric bootstrap of final PPK model

NS(=O)(=O)OC[C@@H]1C[C@@H](n2ccc3c(N[C@H]4CCc5ccccc54)ncnc32)C[C@@H]1O [pevonedistat, Pevonedistat]
renal clearance contribution to total systemic clearance ([1]; ref Millennium Pharmaceuticals): < 5% | renal elimination pathway, share of total plasma clearance ([1]; ref Takeda Millennium Pharmaceuticals): 2.5% | dose linearity of PK (AUC from time 0 to 24 hours vs dose) ([2]; dose from 25 to 278 mg/m^2): linear | drug accumulation ([2]; once-daily dosing for 5 consecutive days or intermittent dosing): little or no notable drug accumulation | maximum tolerated dose (MTD) / recommended Phase II dose [3]: 20 mg/m^2 | average increase in pevonedistat exposure (AUC) [4, 5]: 79% | average increase in pevonedistat exposure (AUC), fold [4, 5]: 1.79 fold | impact of race, sex, age, tumour type, mild or moderate renal impairment (CrCL ≥30 mL/min), mild hepatic impairment on pevonedistat PK ([4]; covariate analysis): had no impact on pevonedistat PK | IIV_CL (interindividual variability), typical value ([4]; final PPK model): 36.6 %CV | IIV_Q, typical value ([4]; final PPK model): 60.5 %CV | IIV_Vc, typical value ([4]; final PPK model): 36.6 %CV | IIV_Vp, typical value ([4]; final PPK model): 36.9 %CV | Albumin on Q (exponent), typical value ([4]; final PPK model, (ALB/40)^θ13): 1.45 | BSA on Q (exponent), typical value ([4]; final PPK model, set the same as BSA on CL): 1.33 | BSA on Vp (exponent), typical value ([4]; final PPK model, set the same as BSA on Vc): 1.39 | BSA on Vc (exponent), typical value ([4]; final PPK model, set the same as BSA on Vp): 1.39 | Vd ([4]; human, plasma, intravenous): 117 L | Albumin on Q, bootstrap median [4, 6]: 1.45 | BSA on Q, bootstrap median [4, 6]: 1.33 | BSA on Vc, bootstrap median [4, 6]: 1.39 | BSA on Vp, bootstrap median [4, 6]: 1.39 | IIV_CL, bootstrap median [4, 6]: 35.9 %CV | IIV_Q, bootstrap median [4, 6]: 60.2 %CV | IIV_Vc, bootstrap median [4, 6]: 36.6 %CV | IIV_Vp, bootstrap median [4, 6]: 36.7 %CV | Q, bootstrap median [4, 6]: 22 L/h | Vc, bootstrap median [4, 6]: 115 L | Vp, bootstrap median [4, 6]: 121 L
